The values that follow come from patent publication US10709769B2, “Use of endostatin peptides for the treatment of fibrosis” (University of Pittsburgh—Of the Commonwealth System of …, priority 2009, dated 2020).

The subject of one test is mouse lung. The test can be described thus: Bleomycin-induced pulmonary fibrosis in mice. In kind it is in vivo. The following applies: for fibrosis and Masson Trichrome staining: 10 μg/ml intratracheally, lungs harvested 10 days. As to the method:
FIG. 10A-10C. E4 attenuates bleomycin induced lung fibrosis in vivo. A: Sixty μg of bleomycin was administrated intratracheally in combination with DMSO as a vehicle (Bleo) or E-4 (Bleo+E-4; 10 μg/ml). In some mice, E-4 (10 μg/ml) was administered intratracheally (IT) three days following bleomycin treatment (Bleo+E-4L). PBS was used as a vehicle for bleomycin (V). Lungs were harvested 10 days post-treatment. Representative images stained with H&E (left panel) and Masson trichrome (right panel) are representative of 3 independent experiments. Magnification, 100×. […] B: Quantification of acid soluble collagen obtained from mouse lungs treated as in panel C with V, Bleo, Bleo+E-4, and Bleo+E-4L. The levels of collagen are presented as μg/mg (lung) from three independent experiments. Unpaired-t test was used for statistical analysis. * P<0.05. […] For Bleo+E4L, Bleo was administered first, then there was a lag of three days between Bleo and E4 administration).
FIG. 11. E4 attenuates bleomycin induced lung fibrosis in vivo whether administered intraperitoneally (IP) or intratracheally (IT). Bleomycin was administered IT at day 1, and E4 was administered either IP or IT at day 3. Lungs were harvested at day 21. […] Thus E4 is effective at reducing fibrosis irrespective of the route of administration. Results are shown for vehicle alone (V), bleomycin alone (Bleo), bleomycin and E4 administered IP, and bleomycin and E4 administered IT.
E4, a peptide representing the carboxy terminus of human endostatin, can attenuate fibrosis triggered by multiple fibrogenic factors. The anti-fibrotic effects of E4 can be detected whether administered concomitantly with or following the fibrogenic trigger. The efficacy of E4 was confirmed in […] pre-clinical models of fibrosis: a) bleomycin-induced dermal fibrosis in vivo in mouse skin, b) TGF-β induced dermal fibrosis in mouse skin, and c) bleomycin-induced pulmonary fibrosis. E4 peptide or a control peptide (E1; representing the amino terminal region of endostatin) were administered at the same time as TGF-β or bleomycin or 3-4 days following TGF-β or bleomycin. […]
For these studies, fibrosis was assessed by measurement of dermal thickness on H&E skin sections (skin), assessment of collagen levels by Masson Trichrome staining (skin and lung), and measurement of collagen levels by Sircol assay (lung). Furthermore, to confirm the mechanism by which E4 exerts its anti-fibrotic effects, the production of extra-cellular matrix (ECM) components, the levels of enzymes that promote matrix stabilization and thus accumulation and levels of those that degrade ECM components, and levels of transcription factors downstream of the pro-fibrotic triggers were evaluated. Results were assessed using the unpaired t test and the 3-way ANOVA (for the ID1 data).

Another test deals with mouse skin. The test can be described thus: Bleomycin-induced dermal fibrosis in vivo in mouse skin. The conditions noted are these: single administration 10 μg/ml on first day, daily bleomycin s.c., skin harvested after 10 days. The procedure: FIGS. 8A-8B. The effect of endostatin E-4 on bleomycin induced dermal fibrosis in vivo. A: Mice were injected subcutaneously with 1×PBS as vehicle (V) or Bleomycin (Bleo; 20 μg/mouse) daily. E-4 (10 μg/ml) was mixed with bleomycin on the first day, and daily bleomycin administration was continued without subsequent injections of E4 (Bleo+E-4). Skin was harvested after 10 days. Sections were stained with H&E. Magnification, 100×. B: Graphical summary of dermal thickness data shown in A. Data represent three independent experiments. Mann-Whitney U test was used for statistical analysis. * P<0.001, ** P<0.00001.
E4, a peptide representing the carboxy terminus of human endostatin, can attenuate fibrosis triggered by multiple fibrogenic factors. The anti-fibrotic effects of E4 can be detected whether administered concomitantly with or following the fibrogenic trigger. […]
For these studies, fibrosis was assessed by measurement of dermal thickness on H&E skin sections (skin), assessment of collagen levels by Masson Trichrome staining (skin and lung), and measurement of collagen levels by Sircol assay (lung). […] Results were assessed using the unpaired t test and the 3-way ANOVA (for the ID1 data).

The test system of the next test is Egr-1. The test is described as follows: Egr-1 western blot in primary human lung fibroblasts. In kind it is cell-based. The following applies: TGFβ followed by E4 after 60 minutes, harvested after 24 hours. The procedure:
FIG. 16. E-4 reduces fibrosis in vitro by reducing levels of the master transcription factor Egr-1 in primary human lung fibroblasts. Reduction of Egr-1 levels parallels that of collagen, SMA, and fibronectin. Lane 1: vehicle (DMSO); Lane 2: E4; Lane 3: TGFβ, Lane 4 TGFβ followed by E4 after 60 minutes. The samples were harvested after 24 hours.
E4 also promotes the degradation of ECM components via induction and activation of matrix metalloprotease (MMP-2), an enzyme that degrades several ECM molecules including fibronectin and native and denatured collagens (FIG. 14). In addition, E4 increases levels of inhibitor of differentiation (ID)-1, a transcription factor that inhibits TGF-β effects (see FIG. 15). It was determined in a Western bloat analysis that E4 reduces the levels of the master switch transcription factor, Egr-1 (see FIG. 16) in primary human lung fibroblasts, treated and harvested after 24 hours. The reduction of Egr-1 levels parallels a reduction in collagen, SMA and fibronectin. Egr-1 is known to mediate the effects of several fibrotic agents (including TGF-β and bleomycin).

Another test concerns lysyl oxidase (LOX). The test is described as follows: TGFβ-induced LOX production in primary human lung fibroblasts. In kind it is cell-based. The conditions noted are these: normal lung fibroblasts passage 4, TGF-β followed 30 minutes later by E4, 48 hrs. The procedure: FIG. 13. E4 reduces fibrosis in vitro by blocking TGFβ-induced LOX production in primary human lung fibroblasts. Normal lung fibroblasts in passage 4 were treated with vehicle, E4, TGFbeta, or TGFbeta followed 30 min. later by E4. Media conditioned by the fibroblasts were analyzed using Western blot analysis after 48 hour. Lane 1: Vehicle (DMSO); Lane 2: E-4; Lane 3: TGF 3; Lane 4: TGF 3 followed by E4.
E4-mediated reduction of LOX was detected also was detected in vitro. Normal lung fibroblasts in passage 4 were treated with vehicle, E4, TGFβ, or TGF-β followed 30 minutes later by E4 (FIG. 13). Media conditioned by the fibroblasts were analyzed using western blot analysis after 48 hrs.

Test [1] concerns Human umbilical vein endothelial cells (HUVECs). The test can be described thus: Tubular formation assay in Matrigel. The conditions noted are these: 50 nM, 24 hours. In kind it is cell-based. As to the method:
The ability of endostatin peptide to inhibit angiogenesis was examined in tubular formation assay using Matrigel® culture. Human umbilical vein endothelial cells (HUVECs) were maintained in endothelial cell basal medium-2 (EBM-2; Clonetics, San Diego, Calif.) supplemented with EBM-2 MV SingleQuots®. HUVECs (5×10^4) were cultured in duplicate on 24-well Matrigel® plates (BD Biosciences, San Diego, Calif.) alone, or in the presence of rE or E4 peptide (50 nM) in EBM-2 at 37° C. DMSO was used as vehicle control. After 24 hours, images were captured using a […] microscope. The degree of cord formation was quantified by measuring the area occupied by tubes in 6 random fields per well. Three independent experiments were performed.

In the case of “H-^133SYCETWRTEAPSATGQASSLLGGRLLGQSAASCHHAYIVLCIENSFMT^180-CONH2 (H-SYCETWRTEAPSATGQASSLLGGRLLGQSAASCHHAYIVLCIENSFMT-NH2; cysteine pairing not given here; UniProt P39060 1704-1751, looked up, fragment) [E4, amino acids 133-180 of human endostatin; differs from E3 by the presence of a carboxy-terminal amide]”, the “fibrosis and Masson Trichrome staining” value with mouse lung (concomitantly with bleomycin) and in the test on mouse lung (three days following bleomycin) was “marked reduction” each time. In addition, the “bleomycin induced lung fibrosis” value was “significant attenuation” with mouse lung (intraperitoneal at day 3, lungs harvested day 21) and “significant attenuation” in the test on mouse lung (intratracheal at day 3, lungs harvested day 21). The “bleomycin induced dermal fibrosis (dermal thickness)” value in the test on mouse skin was “significant attenuation”. Besides, the “levels of Egr-1” value with Egr-1 is “reduces”. For the same substance, in the test with lysyl oxidase (LOX), the “level of LOX (western blot of conditioned media)” value is recorded as “significantly reduced”. Also, the “inhibition of tubular structure formation” value in test [1] was “modest”.
